The results in this text go back to patent US11078170B2 (Assembly Biosciences, Inc., priority 2017, dated 2021).

One may read the EC50 as the concentration at which the effect is half-maximal.

This experiment deals with HBV viral production from HepAD38 cells. The experiment in a line: Activity of test compounds on viral production from HepAD38 cells (viral load by qPCR of HBV core sequence in supernatant). Format: cell-based. The settings on record: Hepatitis B virus, 120 h, 5 days incubation, HBV DNA in supernatant by qPCR, top concentration 10 μM, read-out: Viral Load EC50 Activity range. The essentials:
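HepAD38 cells, 50,000/well in tetracycline-free 2% FBS medium, treated 5 days at 37° C. with compound from 10 μM top concentration. HBV DNA in supernatant quantified by TaqMan qPCR of core sequence against DNA standards, relative to DMSO wells; CellTiter-Glo viability read in parallel. EC50/CC50 from four-parameter logistic fit.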
In the case of `[2H]C1[C@]([2H])(C(=O)Nc2ccc(F)c(Cl)c2)N(C)S(=O)(=O)N[C@]1([2H])c1ccc(-c2cn(C([2H])([2H])[2H])cn2)s1` (stereo in doubt) [HBV-CSU-376-ISO-II, Cis-N-(3-Chloro-4-fluorophenyl)-2-methyl-5-(5-(1-(methyl-d3)-1H-imidazol-4-yl)thiophen-2-yl)-1,2,6-thiadiazinane-3,4,5-d3-3-carboxamide 1,1-dioxide], the half-maximal effective concentration (EC50) lay within 1 to 5 µM.

For the compound `[2H]C1[C@]([2H])(c2ccc(-c3cn(C([2H])([2H])[2H])cn3)s2)NS(=O)(=O)N(C([2H])([2H])[2H])[C@]1([2H])C(=O)Nc1ccc(F)c(Cl)c1` (stereo in doubt) [HBV-CSU-378-ISO-I, Cis-N-(3-chloro-4-fluorophenyl)-2-(methyl-d3)-5-(5-(1-(methyl-d3)-1H-imidazol-4-yl)thiophen-2-yl)-1,2,6-thiadiazinane-3,4,5-d3-3-carboxamide 1,1-dioxide], the EC50 is below 1 µM.

For `[2H]C1[C@]([2H])(C(=O)Nc2ccc(F)c(Cl)c2)N(C([2H])([2H])[2H])S(=O)(=O)N[C@]1([2H])c1ccc(-c2cn(C([2H])([2H])[2H])cn2)s1` (stereo in doubt) [HBV-CSU-378-ISO-II, Cis-N-(3-chloro-4-fluorophenyl)-2-(methyl-d3)-5-(5-(1-(methyl-d3)-1H-imidazol-4-yl)thiophen-2-yl)-1,2,6-thiadiazinane-3,4,5-d3-3-carboxamide 1,1-dioxide], the EC50 lay in the range of 1 to 5 µM.

As to `[2H]C1[C@]([2H])(c2ccc(-c3cnn(C([2H])([2H])[2H])c3)s2)NS(=O)(=O)N(C([2H])([2H])[2H])[C@]1([2H])C(=O)Nc1ccc(F)c(Cl)c1` (stereo in doubt) [HBV-CSU-379-ISO-I, Cis-N-(3-Chloro-4-fluorophenyl)-2-(methyl-d3)-5-(5-(1-(methyl-d3)-1H-pyrazol-4-yl)thiophen-2-yl)-1,2,6-thiadiazinane-3,4,5-d3-3-carboxamide 1,1-dioxide], the EC50 was below 1 µM.

As to `[2H]C1[C@]([2H])(C(=O)Nc2ccc(F)c(Cl)c2)N(C([2H])([2H])[2H])S(=O)(=O)N[C@]1([2H])c1ccc(-c2cnn(C([2H])([2H])[2H])c2)s1` (stereo in doubt) [HBV-CSU-379-ISO-II, Cis-N-(3-Chloro-4-fluorophenyl)-2-(methyl-d3)-5-(5-(1-(methyl-d3)-1H-pyrazol-4-yl)thiophen-2-yl)-1,2,6-thiadiazinane-3,4,5-d3-3-carboxamide 1,1-dioxide], the EC50 is below 1 µM.

With `CN1C(C(=O)Nc2ccccc2)CC(c2cccs2)NS1(=O)=O` (stereo not drawn) [HBV-CSU-006, Cis-2-Methyl-N-phenyl-5-(thiophen-2-yl)-1,2,6-thiadiazinane-3-carboxamide 1,1-dioxide], the EC50 is below 1 µM.

For `CN1[C@H](C(=O)Nc2cccc(Cl)c2)C[C@H](c2cccs2)NS1(=O)=O` [HBV-CSU-010-ISO-I, Cis-N-(3-chlorophenyl)-2-methyl-5-(thiophen-2-yl)-1,2,6-thiadiazinane-3-carboxamide 1,1-dioxide], the EC50 was below 1 µM.

Take `CN1C(C(=O)Nc2ccc(F)c(F)c2)CC(c2cccs2)NS1(=O)=O` (stereo not drawn) [HBV-CSU-011, Cis-N-(3,4-difluorophenyl)-2-methyl-5-(thiophen-2-yl)-1,2,6-thiadiazinane-3-carboxamide 1,1-dioxide]: the 50% effective concentration (EC50) is below 1 µM.

`CN1C(C(=O)Nc2cccc(C(F)(F)F)c2)CC(c2cccs2)NS1(=O)=O` (stereo not drawn) [HBV-CSU-012, Cis-2-Methyl-5-(thiophen-2-yl)-N-(3-(trifluoromethyl)phenyl)-1,2,6-thiadiazinane-3-carboxamide 1,1-dioxide]: the EC50 fell in the range of 1 to 5 µM.

As to `CN1C(C(=O)Nc2ccc(Cl)cc2)CC(c2cccs2)NS1(=O)=O` (stereo not drawn) [HBV-CSU-014, Cis-N-(4-chlorophenyl)-2-methyl-5-(thiophen-2-yl)-1,2,6-thiadiazinane-3-carboxamide 1,1-dioxide], the EC50 is 1 to 5 µM.

`CN(C(=O)C1CC(c2cccs2)NS(=O)(=O)N1C)c1ccc(F)c(Cl)c1` (stereo not drawn) [HBV-CSU-015, Cis-N-(3-Chloro-4-fluorophenyl)-N-2-dimethyl-5-(thiophen-2-yl)-1,2,6-thiadiazinane-3-carboxamide 1,1-dioxide]: the EC50 was in the range of 1 to 5 µM.

Take `CN1[C@H](C(=O)Nc2ccc(F)c(Br)c2)C[C@H](c2cccs2)NS1(=O)=O` [HBV-CSU-016-ISO-I, Cis-N-(3-Bromo-4-fluorophenyl)-2-methyl-5-(thiophen-2-yl)-1,2,6-thiadiazinane-3-carboxamide 1,1-dioxide]: the EC50 was below 1 µM.

For `CN1C(C(=O)Nc2cccc(Br)c2)CC(c2cccs2)NS1(=O)=O` (stereo not drawn) [HBV-CSU-017, Cis-N-(3-Bromophenyl)-2-methyl-5-(thiophen-2-yl)-1,2,6-thiadiazinane-3-carboxamide 1,1-dioxide], the EC50 was below 1 µM.

Take `CN1[C@H](C(=O)Nc2cccc(Br)c2)C[C@H](c2cccs2)NS1(=O)=O` [HBV-CSU-017-ISO-I, Cis-N-(3-Bromophenyl)-2-methyl-5-(thiophen-2-yl)-1,2,6-thiadiazinane-3-carboxamide 1,1-dioxide]: the EC50 is below 1 µM.

`CN1C(C(=O)Nc2ccc(Cl)c(F)c2)CC(c2cccs2)NS1(=O)=O` (stereo not drawn) [HBV-CSU-018, Cis-N-(4-Chloro-3-fluorophenyl)-2-methyl-5-(thiophen-2-yl)-1,2,6-thiadiazinane-3-carboxamide 1,1-dioxide]: the EC50 was in the range of 1 to 5 µM.

For the compound `CN1C(C(=O)Nc2ccc(C#N)cc2)CC(c2cccs2)NS1(=O)=O` (stereo not drawn) [HBV-CSU-019, Cis-N-(4-cyanophenyl)-2-methyl-5-(thiophen-2-yl)-1,2,6-thiadiazinane-3-carboxamide 1,1-dioxide], the EC50 was above 5 µM.

For the compound `CN1[C@H](C(=O)Nc2cccc(C#N)c2)C[C@H](c2cccs2)NS1(=O)=O` [HBV-CSU-020-ISO-I, Cis-N-(3-cyanophenyl)-2-methyl-5-(thiophen-2-yl)-1,2,6-thiadiazinane-3-carboxamide 1,1-dioxide], the EC50 was below 1 µM.

Consider `CN1C(C(=O)Nc2ccc(F)c(Cl)c2)CC(c2cccs2)N(C)S1(=O)=O` (stereo not drawn) [HBV-CSU-023, Cis-N-(3-Chloro-4-fluorophenyl)-2,6-dimethyl-5-(thiophen-2-yl)-1,2,6-thiadiazinane-3-carboxamide 1,1-dioxide], for which the EC50 fell in the range of 1 to 5 µM.

`COCCN1[C@@H](C(=O)Nc2ccc(F)c(Cl)c2)C[C@@H](c2cccs2)NS1(=O)=O` [HBV-CSU-025-ISO-I, Cis-N-(3-chloro-4-fluorophenyl)-2-(2-methoxyethyl)-5-(thiophen-2-yl)-1,2,6-thiadiazinane-3-carboxamide 1,1-dioxide]: the EC50 is above 5 µM.

`COCCN1[C@H](C(=O)Nc2ccc(F)c(Cl)c2)C[C@H](c2cccs2)NS1(=O)=O` [HBV-CSU-025-ISO-II, Cis-N-(3-chloro-4-fluorophenyl)-2-(2-methoxyethyl)-5-(thiophen-2-yl)-1,2,6-thiadiazinane-3-carboxamide 1,1-dioxide]: the EC50 was below 1 µM.

With `CN1[C@@H](C(=O)Nc2ccc(F)c(Cl)c2)C[C@@H](c2nccs2)NS1(=O)=O` [HBV-CSU-027-ISO-I, Cis-N-(3-chloro-4-fluorophenyl)-2-methyl-5-(thiazol-2-yl)-1,2,6-thiadiazinane-3-carboxamide 1,1-dioxide], the EC50 was above 5 µM.

On to `CN1[C@H](C(=O)Nc2ccc(F)c(Cl)c2)C[C@H](c2ccc(F)s2)NS1(=O)=O` [HBV-CSU-029-ISO-I, Cis-N-(3-chloro-4-fluorophenyl)-5-(5-fluorothiophen-2-yl)-2-methyl-1,2,6-thiadiazinane-3-carboxamide 1,1-dioxide], for which the 50% effective concentration (EC50) was below 1 µM.

Consider `CN1[C@H](C(=O)Nc2ccc(F)c(Cl)c2)C[C@H](c2ccccn2)NS1(=O)=O` [HBV-CSU-031-ISO-I, Cis-N-(3-Chloro-4-fluorophenyl)-2-methyl-5-(pyridin-2-yl)-1,2,6-thiadiazinane-3-carboxamide 1,1-dioxide], for which the EC50 is below 1 µM.

Turning to `CN1[C@@H](C(=O)Nc2ccc(F)c(Cl)c2)C[C@@H](c2ccccn2)NS1(=O)=O` [HBV-CSU-031-ISO-II, Cis-N-(3-Chloro-4-fluorophenyl)-2-methyl-5-(pyridin-2-yl)-1,2,6-thiadiazinane-3-carboxamide 1,1-dioxide], the EC50 is above 5 µM.

In the case of `CN1C(C(=O)Nc2ccc(F)c(Cl)c2)CC(c2ccc(F)cn2)NS1(=O)=O` (stereo not drawn) [HBV-CSU-032, Cis-N-(3-Chloro-4-fluorophenyl)-5-(5-fluoropyridin-2-yl)-2-methyl-1,2,6-thiadiazinane-3-carboxamide 1,1-dioxide], the EC50 was below 1 µM.

`CN1[C@H](C(=O)Nc2ccc(F)c(Cl)c2)C[C@H](c2ccc(F)cn2)NS1(=O)=O` [HBV-CSU-032-ISO-I, Cis-N-(3-Chloro-4-fluorophenyl)-5-(5-fluoropyridin-2-yl)-2-methyl-1,2,6-thiadiazinane-3-carboxamide 1,1-dioxide]: the EC50 was below 1 µM.

Consider `CN1[C@@H](C(=O)Nc2ccc(F)c(Cl)c2)C[C@@H](c2ccc(F)cn2)NS1(=O)=O` [HBV-CSU-032-ISO-II, Cis-N-(3-Chloro-4-fluorophenyl)-5-(5-fluoropyridin-2-yl)-2-methyl-1,2,6-thiadiazinane-3-carboxamide 1,1-dioxide], for which the EC50 was above 5 µM.

For the compound `CN1C(C(=O)Nc2ccc(F)c(Cl)c2)CC(c2cccnc2)NS1(=O)=O` (stereo not drawn) [HBV-CSU-033, Cis-N-(3-Chloro-4-fluorophenyl)-2-methyl-5-(pyridin-3-yl)-1,2,6-thiadiazinane-3-carboxamide 1,1-dioxide], the EC50 is below 1 µM.

As for `C=CCN1C(C(=O)Nc2ccc(F)c(Cl)c2)CC(c2cccs2)NS1(=O)=O` (stereo not drawn) [HBV-CSU-040, Cis-2-Allyl-N-(3-chloro-4-fluorophenyl)-5-(thiophen-2-yl)-1,2,6-thiadiazinane-3-carboxamide 1,1-dioxide], the EC50 is below 1 µM.

`O=C(Nc1ccc(F)c(Cl)c1)C1CC(c2cccs2)NS(=O)(=O)N1CCO` (stereo not drawn) [HBV-CSU-041, Cis-N-(3-Chloro-4-fluorophenyl)-2-(2-hydroxyethyl)-5-(thiophen-2-yl)-1,2,6-thiadiazinane-3-carboxamide 1,1-dioxide]: the EC50 is above 5 µM.
